Test results: US10619209B2, “Serotonin transporter gene and treatment of opioid-related disorders” (University of Virginia Patent Foundation, priority 2008, dated 2020)
Structures can show the parent of a compound that is named as a salt.

Key:
[1] = system: alcohol-dependent men and women; assay: 12-week treatment trial of ondansetron by 5'-HTTLPR and rs1042173 genotype (Example 4); format: in vivo, human
Experimental: 289 alcohol-dependent men and women enrolled in a 12-week treatment trial in which they received either ondansetron (4 μg/kg) or placebo. All subjects also received weekly cognitive behavioral therapy as their standardized psychosocial treatment. Genotyping was conducted on all subjects. Mixed-effects models were used to study the effect of treatment and genotype and their interaction for each of the primary drinking outcomes. The models included random intercept and random slope and were adjusted for covariates such as participants' average 90-day drinking levels prior to the study, age, gender, ethnicity (Caucasian and Hispanic), and center. A variance-components covariance matrix was used to model different variances for the intercept and slope and a covariance between them. Interactions of treatment, genotype, age, and center were first included in the models. They were excluded from the final models if not significant.

[2] = system: alcohol-dependent individuals; assay: 12-week randomized controlled pharmacotherapy trial of ondansetron by 5'-HTTLPR genotype (Example 3); format: in vivo, human; settings: for mean (SEM) DDD reduction from baseline across the treatment period: ondansetron 4 μg/kg b.i.d., 12 weeks
Source text: In a pre-planned interim analysis, data were examined for the 226 alcohol-dependent individuals (aged 18-65 years) enrolled into the 12-week randomized controlled pharmacotherapy trial to determine the effect of ondansetron on drinking among individuals who varied on allelic difference at the 5-HTT gene and age of alcoholism onset. All these individuals were enrolled at the University of Texas Health Science Center at San Antonio. Briefly, the study design was 2 (LL vs. LS/SS)×2 (early onset vs. late onset)×2 (ondansetron 4 μg/kg b.i.d. vs. placebo). The inferential results below are for the severity of drinking—drinks/drinking day (DDD).
Demographic data were that: 74% were male and 26% female; 48% were early-onset alcoholics and 52% late-onset alcoholics, and 20% were Hispanic and 80% White. There were no significant differences (P>0.05) on demographics between the treatment groups. Baseline mean (SD) DDD (past 90 days) were also similar for the ondansetron 4 μg/kg b.i.d. and placebo groups—9.83 (4.63) vs. 9.85 (4.49), respectively. The inferential analyses were conducted on all randomized subjects according to the intent-to-treat principle. The analytic plan was first to calculate the DDD in each week. We then used the difference between weekly DDD and the baseline DDD (in the past 90 days) as repeat measures. A mixed-model approach (SAS PROC MIXED) was used to study the effect of treatment, genotype (LL vs. LS/SS), treatment and genotype interaction, age, age of onset (early vs. late), gender, and age at onset of problem drinking, adjusting for the baseline DDD level. Also included is a random slope for time to study the variation in the time trend of the weekly DDD.

[3] = alcohol trials; 50 mg/day; cited from earlier work
[4] = cited from earlier work
[5] = placebo vs. treatment, LL genotype
[6] = placebo vs. treatment, LS/SS genotype
[7] = treatment (ondansetron) group, LS/SS vs. LL

SMILES: Cc1nccn1CC1CCc2c(c3ccccc3n2C)C1=O (centres unmarked) [ondansetron, 9-methyl-3-[(2-methyl-1H-imidazol-1-yl)methyl]-1,2,3,9-tetrahydrocarbazol-4-one]
- mean difference in DDD ([1]; LL genotype, treatment group vs placebo group): −1.50 DDD
- mean difference in DDD ([1]; treated with ondansetron 4 μg/kg, LL vs LS/SS genotype): −1.41 DDD
- mean difference in DDD ([1]; treated with ondansetron 4 μg/kg, TT vs TG/GG genotype of rs1042173): −1.31 DDD
- mean (SEM) DDD reduction from baseline across the treatment period ([2]; LL genotype): 5.70 (0.64) DDD
- mean (SEM) DDD reduction from baseline across the treatment period ([2]; LS/SS genotype): 3.45 (0.44) DDD
- Cohen's d [2, 5]: 0.08
- Estimate (cell contrast on DDD) [2, 5]: 2.16 DDD
- Cohen's d [2, 6]: 0.04
- Estimate (cell contrast on DDD) [2, 6]: −0.80 DDD
- Cohen's d [2, 7]: 0.10
- Estimate (cell contrast on DDD) [2, 7]: 2.25 DDD

SMILES: O=C1CC[C@@]2(O)[C@H]3Cc4ccc(O)c5c4[C@@]2(CCN3CC2CC2)[C@H]1O5 [naltrexone, 17-(Cyclopropylmethyl)-4,5a-epoxy-3,14-dihydroxymorphinan-6-one hydrochloride]
- individuals unable to tolerate the dose [3]: about 15%

SMILES: CC1(C)O[C@@H]2[C@@H](CO[C@@]3(COS(N)(=O)=O)OC(C)(C)O[C@@H]23)O1 [topiramate, 2,3:4,5-Bis-O-(1-methylethylidene)-beta-D-fructopyranose sulfamate]
- individuals reporting cognitive impairment ([4]; general population): 2.4%
- occurrence rate of cognitive impairment ([4]; substance abuse field): about 18.7%
